Like-named read-outs stand apart in the source and are kept apart here.
How the values were obtained:
DYRK1A [1] = target: T1, DYRK1A (Rattus norvegicus, UniProt Q63470); test: In vitro kinase assay DYRK1A, Woodtide substrate; type: biochemical
Method: (§1) It was also tested as positive control and its IC50 values were compared to those obtained for the compounds under study.
(§2) Buffer A: MgCl2 (10 mM), 1 mM ethylene glycol-bis(2-aminoethylether)-N,N,N’,N’- tetraacetic acid (EGTA), 1 mM dithiothreitol (DTT), 25 mM Tris-HCl pH 7.5, 50 μg heparin/mL. Buffer B: β-Glycerophosphate (60 mM), 30 mM p-nitrophenylphosphate, 25 mM 3-(N-morpholino) propanesulfonic acid (Mops) (pH 7.2), 5 mM EGTA, 15 mM MgCl2, 1 mM DTT, 0.1 mM sodium vanadate.
(§3) Blank values were substracted and activities expressed in % of the maximal activity, i.e., in the absence of inhibitors. Controls were performed with appropriate dilutions of dimethylsulfoxide (DMSO). IC50 values were calculated from dose-response curves established by Sigma-Plot graphs. The GSK-3, CK1, DYRK1A and CLK1 peptide substrates were obtained from Proteogenix (Oberhausbergen, France).
(§4) CDK5/p25. (Human, recombinant) was prepared as previously described. […] ATP (3000 Ci/mmol; 10 mCi/mL) in a final volume of 30 μL. After 30 min incubation at 30 °C, 25 μL aliquots of supernatant were spotted onto sheets of P81 phosphocellulose paper (Whatman) and 20 s later, the filters were washed eight times (for at least 5 min each time) in a solution of 10 mL phosphoric acid/L of water. The wet filters were counted in the presence of 1 mL ACS (Amersham, UK) scintillation fluid.

CDK5/p25 = target: T2, CDK5/p25 (Homo sapiens, UniProt Q00535); test: In vitro kinase assay CDK5/p25, [γ-33P]ATP, histone H1 substrate; type: biochemical
T2 construct: made in house
T2 sequence (Q00535 whole entry): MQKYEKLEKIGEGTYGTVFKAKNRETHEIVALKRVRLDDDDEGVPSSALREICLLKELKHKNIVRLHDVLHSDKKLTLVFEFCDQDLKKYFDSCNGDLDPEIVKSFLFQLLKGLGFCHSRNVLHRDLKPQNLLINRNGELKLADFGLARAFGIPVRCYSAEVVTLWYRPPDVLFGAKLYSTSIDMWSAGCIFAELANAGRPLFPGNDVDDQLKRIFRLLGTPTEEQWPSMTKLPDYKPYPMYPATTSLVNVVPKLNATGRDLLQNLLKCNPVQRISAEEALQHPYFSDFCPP
T2 sequence (Q15078 99-307 partner limits assumed): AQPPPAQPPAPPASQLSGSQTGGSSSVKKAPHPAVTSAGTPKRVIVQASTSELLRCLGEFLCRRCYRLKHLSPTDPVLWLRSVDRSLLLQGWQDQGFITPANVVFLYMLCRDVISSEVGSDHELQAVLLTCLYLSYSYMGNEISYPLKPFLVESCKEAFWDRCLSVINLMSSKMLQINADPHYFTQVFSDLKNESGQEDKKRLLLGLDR
Method: as §1, §2, §3, §4

GSK-3α/β = test: In vitro kinase assay GSK-3α/β, GS-1 peptide substrate; type: biochemical, Porcine
Method: as §1, §2, §3, §4
GSK-3α/β. (Porcine brain, native) was assayed, as described for CDK5/p25 but in buffer A and using a GSK-3 specific substrate (GS-1: […]pSEDEEE) (pS stands for phosphorylated serine).

CK1δ/ε = test: In vitro kinase assay CK1δ/ε, CK1-specific peptide substrate; type: biochemical, Porcine; settings: 15 μM ATP, 30 min, 30 °C, triplicate; <50% inhibition at 10 μM = IC50 >10 μM
Method: as §1, §2, §3, §4
CK1δ/ε. (Porcine brain, native) was assayed as described for CDK5/p25 but using the CK1-specific peptide substrate […]pSAYSITA [37].

CLK1 [2] = target: T3, CLK1 (Homo sapiens, UniProt P49759); settings: read-out: CLK1 IC50, 15 μM ATP, 30 min, 30 °C, triplicate
T3 sequence (P49759 whole entry): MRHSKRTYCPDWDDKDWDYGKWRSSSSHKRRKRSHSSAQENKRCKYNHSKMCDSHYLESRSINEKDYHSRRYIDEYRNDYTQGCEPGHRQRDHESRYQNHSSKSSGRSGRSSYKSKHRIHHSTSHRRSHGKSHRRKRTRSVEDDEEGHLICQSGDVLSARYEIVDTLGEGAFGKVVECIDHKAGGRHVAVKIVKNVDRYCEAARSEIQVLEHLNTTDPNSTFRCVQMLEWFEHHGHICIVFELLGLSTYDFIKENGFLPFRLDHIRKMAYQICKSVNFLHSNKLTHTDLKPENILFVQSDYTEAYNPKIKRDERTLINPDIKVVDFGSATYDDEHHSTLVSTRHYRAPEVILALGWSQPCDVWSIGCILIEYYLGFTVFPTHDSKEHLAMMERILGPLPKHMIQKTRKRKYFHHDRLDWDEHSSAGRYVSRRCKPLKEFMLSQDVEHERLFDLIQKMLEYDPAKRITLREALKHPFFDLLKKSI

DYRK1A [3] = target: T1, DYRK1A; test: DYRK1A inhibition of earlier compounds I and II (Figure 2); type: biochemical; settings: list of targeted kinases extended for earlier compounds
CDK1 = tested on: CDK1; design: method as in PMID 17981370, PMID 16644220; settings: Figure 2; earlier work; cited from earlier work
CLK1 [4] = target: T3, CLK1; test: biochemical
[5] = 15 μM ATP, 30 min, 30 °C, triplicate, <50% inhibition at 10 μM = IC50 >10 μM, read-out: DYRK1A IC50
[6] = 15 μM ATP, 30 min, 30 °C, triplicate, <50% inhibition at 10 μM = IC50 >10 μM

| Structure (SMILES) | IC50 (DYRK1A [1]; [5]) | IC50 (CDK5/p25; [6]) | IC50 (GSK-3α/β) | IC50 (CK1δ/ε) | IC50 (CLK1 [2]) | DYRK1A IC50 (DYRK1A [3]) | IC50 (DYRK1A [3]) | CDK1 IC50 (CDK1) | IC50 (CDK1) | IC50 (DYRK1A [1]) | IC50 (CDK5/p25) | IC50 (CLK1 [4]) |
| --- | --- | --- | --- | --- | --- | --- | --- | --- | --- | --- | --- | --- |
| COCCn1cnc2ccc3nc(C(=N)OC(C)C)sc3c2c1=O [Compound 15b, Isopropyl 8-(2-methoxyethyl)-9-oxo-8,9-dihydro[1, 3]thiazolo[5,4-f]quinazoline-2-carboximidate] | 3900 nM | > 10000 nM | 2500 nM | > 10000 nM | 2100 nM | – | – | – | – | – | – | – |
| COC(=N)c1nc2ccc3ncn(CCN(C)C)c(=O)c3c2s1 [Compound 12i, Methyl 8-[(3-dimethylamino)ethyl]-9-oxo-8,9-dihydrothiazolo[5,4-f]quinazoline-2-carbimidate] | 1000 nM | > 10000 nM | 1800 nM | > 10000 nM | 1800 nM | – | – | – | – | – | – | – |
| COCCCn1cnc2ccc3nc(C(=N)OC(C)C)sc3c2c1=O [Compound 15c, Isopropyl 8-(3-methoxypropyl)-9-oxo-8,9-dihydro[1, 3]thiazolo[5,4-f]quinazoline-2-carboximidate] | 950 nM | > 10000 nM | 270 nM | > 10000 nM | 1200 nM | – | – | – | – | – | – | – |
| CCn1cnc2ccc3nc(C(=N)OCc4ccccc4)sc3c2c1=O [II] | – | – | – | – | – | micromolar | 1500 nM | micromolar range | 1300 nM | – | – | – |
| CC(C)n1cnc2ccc3nc(C(=N)OCc4ccccc4)sc3c2c1=O [Compound 13d, Benzyl 8-isopropyl-9-oxo-8,9-dihydro[1, 3]thiazolo[5,4-f]quinazoline-2-carbimidate] | – | > 10000 nM | 57 nM | > 10000 nM | 270 nM | – | – | – | – | – | – | – |
| COCCCn1cnc2ccc3nc(C(=N)OC)sc3c2c1=O [Compound 12c, Methyl 8-(3-methoxypropyl)-9-oxo-8,9-dihydrothiazolo[5,4-f]quinazoline-2-carbimidate] | – | – | 120 nM | > 10000 nM | – | – | – | – | – | 320 nM | > 10000 nM | 210 nM |
| COCCn1cnc2ccc3nc(C(=N)OC)sc3c2c1=O [Compound 12b, Methyl 8-(2-methoxyethyl)-9-oxo-8,9-dihydrothiazolo[5,4-f]quinazoline-2-carbimidate] | 390 nM | > 10000 nM | 1200 nM | > 10000 nM | 510 nM | – | – | – | – | – | – | – |
| COC(=N)c1nc2ccc3ncn(-c4ccc(OC)cc4)c(=O)c3c2s1 [Compound 12l, Methyl 8-(4-methoxyphenyl)-9-oxo-8,9-dihydrothiazolo[5,4-f]quinazoline-2-carbimidate] | – | – | 1200 nM | > 10000 nM | – | – | – | – | – | 3000 nM | > 10000 nM | 7900 nM |
